Assay results reported in the NIST ThermoML archive (doi:10.1021/je901043q).

Assay: xn = mol fraction of the nth substance listed
Settings: 101 kPa, Liquid

CCCCn1cc[n+](C)c1.N#C[S-] [1-butyl-3-methylimidazolium thiocyanate] + CCCCCCCCCCO
Settings	mass density [kg/m3]	viscosity [mPa·s]
298.15 K, x1 = 0.0747	843.95	13.07
298.15 K, x1 = 0.1621	864.67	15.5
298.15 K, x1 = 0.2537	886.57	18.67
298.15 K, x1 = 0.3512	910.03	22.48
298.15 K, x1 = 0.4924	944.3	28.36
298.15 K, x1 = 0.5922	968.81	32.87
298.15 K, x1 = 0.6659	987.05	36.09
298.15 K, x1 = 0.7576	1009.83	40
298.15 K, x1 = 0.8692	1037.62	45.01
298.15 K, x1 = 0.9587	1059.8	49.31
298.15 K, x1 = 1	1069.79	51.74
308.15 K, x1 = 0.0747	837.19	9.168
308.15 K, x1 = 0.1621	857.99	10.96
308.15 K, x1 = 0.2537	879.95	13.08
308.15 K, x1 = 0.3512	903.51	15.62
308.15 K, x1 = 0.4924	938.02	19.52
308.15 K, x1 = 0.5922	962.63	22.29
308.15 K, x1 = 0.6659	981.01	24.5
308.15 K, x1 = 0.7576	1003.83	27.12
308.15 K, x1 = 0.8692	1031.69	30.46
308.15 K, x1 = 0.9587	1053.86	33.3
308.15 K, x1 = 1	1063.89	34.87
318.15 K, x1 = 0.0747	830.4	6.582
318.15 K, x1 = 0.1621	851.35	7.964
318.15 K, x1 = 0.2537	873.42	9.541
318.15 K, x1 = 0.3512	897.08	11.39
318.15 K, x1 = 0.4924	931.78	14.06
318.15 K, x1 = 0.5922	956.5	16.04
318.15 K, x1 = 0.6659	974.94	17.59
318.15 K, x1 = 0.7576	997.87	19.4
318.15 K, x1 = 0.8692	1025.8	21.56
318.15 K, x1 = 0.9587	1048.02	23.3
318.15 K, x1 = 1	1058.02	24.19
328.15 K, x1 = 0.0747	823.59	4.88
328.15 K, x1 = 0.1621	844.7	5.959
328.15 K, x1 = 0.2537	866.89	7.162
328.15 K, x1 = 0.3512	890.79	8.553
328.15 K, x1 = 0.4924	925.54	10.62
328.15 K, x1 = 0.5922	950.4	11.98
328.15 K, x1 = 0.6659	968.92	12.98
328.15 K, x1 = 0.7576	991.96	14.04
328.15 K, x1 = 0.8692	1019.98	15.15
328.15 K, x1 = 0.9587	1042.2	16.1
328.15 K, x1 = 1	1052.19	16.7
338.15 K, x1 = 0.0747	816.7	3.741
338.15 K, x1 = 0.1621	838	4.567
338.15 K, x1 = 0.2537	860.36	5.526
338.15 K, x1 = 0.3512	884.37	6.586
338.15 K, x1 = 0.4924	919.35	8.183
338.15 K, x1 = 0.5922	944.32	9.243
338.15 K, x1 = 0.6659	962.91	9.998
338.15 K, x1 = 0.7576	986.05	10.76
338.15 K, x1 = 0.8692	1014.18	11.46
338.15 K, x1 = 0.9587	1036.43	12.18
338.15 K, x1 = 1	1046.43	12.73
348.15 K, x1 = 0.0747	809.76	2.909
348.15 K, x1 = 0.1621	831.23	3.578
348.15 K, x1 = 0.2537	853.79	4.411
348.15 K, x1 = 0.3512	877.97	5.195
348.15 K, x1 = 0.4924	913.13	6.455
348.15 K, x1 = 0.5922	938.26	7.278
348.15 K, x1 = 0.6659	956.95	7.875
348.15 K, x1 = 0.7576	980.21	8.487
348.15 K, x1 = 0.8692	1008.43	9.047
348.15 K, x1 = 0.9587	1030.7	9.624
348.15 K, x1 = 1	1040.7	9.98

CCCCn1cc[n+](C)c1.N#C[S-] [1-butyl-3-methylimidazolium thiocyanate] + CCCCCCCCO
Settings	mass density [kg/m3]	viscosity [mPa·s]
298.15 K, x1 = 0.0874	847.17	9.062
298.15 K, x1 = 0.1352	860.64	10.03
298.15 K, x1 = 0.2208	884.32	12.08
298.15 K, x1 = 0.3599	921.24	16.3
298.15 K, x1 = 0.4693	949.07	20.44
298.15 K, x1 = 0.5739	974.82	24.86
298.15 K, x1 = 0.675	998.86	29.44
298.15 K, x1 = 0.7673	1020.12	–
298.15 K, x1 = 0.8721	1043.42	39.69
298.15 K, x1 = 0.9619	1062.27	45.09
298.15 K, x1 = 1	1069.79	51.74
308.15 K, x1 = 0.0874	840.37	6.504
308.15 K, x1 = 0.1352	853.92	7.237
308.15 K, x1 = 0.2208	877.72	8.726
308.15 K, x1 = 0.3599	914.82	11.7
308.15 K, x1 = 0.4693	942.78	14.47
308.15 K, x1 = 0.5739	968.64	17.39
308.15 K, x1 = 0.675	992.79	20.38
308.15 K, x1 = 0.7673	1014.13	–
308.15 K, x1 = 0.8721	1037.47	26.63
308.15 K, x1 = 0.9619	1056.33	29.99
308.15 K, x1 = 1	1063.89	34.87
318.15 K, x1 = 0.0874	833.52	4.842
318.15 K, x1 = 0.1352	847.19	5.396
318.15 K, x1 = 0.2208	871.11	6.516
318.15 K, x1 = 0.3599	908.42	8.719
318.15 K, x1 = 0.4693	936.52	10.67
318.15 K, x1 = 0.5739	962.5	12.72
318.15 K, x1 = 0.675	986.77	14.79
318.15 K, x1 = 0.7673	1008.17	–
318.15 K, x1 = 0.8721	1031.58	18.95
318.15 K, x1 = 0.9619	1050.45	21.14
318.15 K, x1 = 1	1058.02	24.19
328.15 K, x1 = 0.0874	826.65	3.691
328.15 K, x1 = 0.1352	840.37	4.158
328.15 K, x1 = 0.2208	864.48	5.003
328.15 K, x1 = 0.3599	902.01	6.654
328.15 K, x1 = 0.4693	930.28	8.141
328.15 K, x1 = 0.5739	956.41	9.644
328.15 K, x1 = 0.675	980.77	11.14
328.15 K, x1 = 0.7673	1002.28	–
328.15 K, x1 = 0.8721	1025.72	14.06
328.15 K, x1 = 0.9619	1044.62	15.59
328.15 K, x1 = 1	1052.19	16.7
338.15 K, x1 = 0.0874	819.63	2.884
338.15 K, x1 = 0.1352	833.53	3.272
338.15 K, x1 = 0.2208	857.82	3.928
338.15 K, x1 = 0.3599	895.62	5.233
338.15 K, x1 = 0.4693	924.05	6.379
338.15 K, x1 = 0.5739	950.33	7.509
338.15 K, x1 = 0.675	974.82	8.648
338.15 K, x1 = 0.7673	996.4	–
338.15 K, x1 = 0.8721	1019.88	10.82
338.15 K, x1 = 0.9619	1038.82	11.94
338.15 K, x1 = 1	1046.43	12.73
348.15 K, x1 = 0.0874	812.55	2.306
348.15 K, x1 = 0.1352	826.58	2.633
348.15 K, x1 = 0.2208	851.13	3.171
348.15 K, x1 = 0.3599	889.21	4.233
348.15 K, x1 = 0.4693	917.85	5.1
348.15 K, x1 = 0.5739	944.27	5.987
348.15 K, x1 = 0.675	968.89	6.874
348.15 K, x1 = 0.7673	990.57	–
348.15 K, x1 = 0.8721	1014.14	8.592
348.15 K, x1 = 0.9619	1033.09	9.462
348.15 K, x1 = 1	1040.7	9.98
